The source of these data is US20250108119A1, “NOVEL STEROID PAYLOADS, STEROID LINKERS, ADCs CONTAINING AND USE THEREOF” (IMMUNEXT, INC., priority 2021, published 2025).

One experiment concerns human PBMC. Put plainly: Cytokine production (IL-1β, IL-6) at 24 hr by human PBMC incubated with 1 ng/mL LPS. To be noted: anti-VISTA conjugates, serial dilutions with respect to total ADC concentration (20-0.003 μg/mL), equivalent or reduced DAR. The format is cell-based. In short, it runs like this:
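Human PBMC were stimulated with 1 ng/mL LPS together with serial dilutions of steroid payloads or glucocorticoid conjugates, spanning up to 8,000 nM down to 0.032 nM depending on the series. IL-1β and IL-6 were measured at 24 hr from technical duplicates, with 1-2 donors. Values above the ULOQ were extrapolated.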

A further experiment concerns FKBP5. Put plainly: FKBP5 transcription in peritoneal resident macrophages (PRM) and spleen cells after in vivo treatment. Also on record: species or system hVISTA mice. To be noted: linker payloads as anti-VISTA conjugates.
Experiment [1] deals with peritoneal resident macrophages (PRM). In words: In vivo treatment/ex vivo PRM activation, TNFα and IL-6 in supernatant. Also on record: species or system hVISTA mice. How it is done:
Based thereon we developed a model to allow us to evaluate long-term anti-inflammatory impact of ADC on specific target populations, such as PRMs. […] In the absence of GC treatment, after 2h PRMs become highly activated as shown by increases in cytokine production. […] The objective of these studies was to evaluate the efficacy and pharmacodynamic range of INX human VISTA antibodies conjugated to a glucocorticoid payload as compared to free Dex.
After euthanasia, mice were injected in the peritoneal cavity with 7 ml of PBS/0.5% BSA/2 mM EDTA. After a brief massage of the peritoneum, a small incision was performed and the peritoneal lavage collected. PRM were isolated using negative selection (Miltenyi kit, ref 130-110-434). Spleen were dissected and dissociated mechanically; monocytes were isolated using […] (Stem Cell, EasySep™ Mouse CD11b Positive Selection Kit II).
PRMs were resuspended in RPMI 1640 with 10% FBS, 10 mM Hepes, Penicillin/Streptomycin and glutamine and 100,000 cells were plated per well in a 96-well tissue culture plate. Supernatants were collected at 2 and 24h post plating and stored at −80° C. […]
• BioLegend (cat #430904) ELISA MAX Deluxe Set Mouse TNF-α • BioLegend (cat #431304) ELISA MAX Deluxe Set Mouse IL-6
ELISAs were conducted following the manufacturer's included protocol.

Experiment [2] relates to LPS stimulated human PBMCs. In words: LPS stimulated human PBMC, IL-1β and IL-6 ELISA. It counts as cell-based. In short, it runs like this:
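Human PBMC (1-2 healthy donors), 150,000 cells/well, treated with test agents at 1,000 nM down to 1 nM or 0.2 nM, in duplicate. LPS at 1 ng/ml added immediately after free payload or 4 h after conjugates; IL-1β and IL-6 in supernatants measured by ELISA.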
In general terms: An ELISA detects its analyte on a solid surface through an enzyme-linked reagent.

Setting [3] is: linker/payloads as anti-VISTA conjugates.

Take `C[C@]12C=CC(=O)C=C1CC[C@@H]1[C@@H]2[C@@H](O)C[C@@]2(C)[C@H]1C[C@H]1O[C@@H](c3ccc(CC4CC5(C4)CC(NC(=O)[C@H](CCC(=O)O)NC(=O)CNC(=O)CBr)C5)cc3)O[C@]12C(=O)CO` (stereo partly drawn) [INX V, (S)-4-(2-(2-bromoacetamido)acetamido)-5-((6-(4-((6aR,6bS,7S,8aS,8bS,10R,11aR,12aS,12bS)-7-hydroxy-8b-(2-hydroxyacetyl)-6a,8a-dimethyl-4-oxo-2,4,6a,6b,7,8,8a,8b,11a,12,12a,12b-dodecahydro-1H-naphtho[2′,1′:4,5]indeno[1,2-d][1,3]dioxol-10-yl)benzyl)spiro[3.3]heptan-2-yl)amino)-5-oxopentanoic acid]: the “potency in reducing IL-1β production” value in the experiment with human PBMC is reported as “enhanced potency”. Also, the “FKBP5 induction when dosed 14 days early (conclusions)” value in the experiment with FKBP5 is “still display significant potency when dosed 14 days early in regard to FKBP5 induction”. In addition, the “preventing ex vivo induction of TNFα and IL-6 in PRM” value in experiment [1] (Experiment 9: linker payloads as conjugates, 7 days post 0.2 mg/Kg of GC payload, supernatant 24h) was “remarkable long-term potency in controlling cytokine responses”. In addition, in experiment [1] (setting [3]), the “controlling cytokine response in PRM when dosed 14 days early (conclusions)” value is “significant potency in controlling cytokine response in PRM when dosed 14 days early”; the “potency in PRM cytokine model when dosed 7 days early (conclusions)” value is “remarkably more potent than payloads INX P and INX R when dosed 7 days early”. Also, the “potency of conjugated linker payloads over INX J (conclusions)” value in experiment [2] is recorded as “enhanced potency”.
